Eight compounds from patent publication US20250188092A1, “RIFAMYCIN ANALOGS” (THE REGENTS OF THE UNIVERSITY OF MICHIGAN, priority 2021, published 2025) can be followed below.

One series deals with T1, E. coli WT RNAP (Escherichia coli, UniProt P0A8V2).
T1 construct: made in house
As to the kind of experiment: biochemical.

Series [1] concerns the target T2, E. coli D516V (RIF^R) RNAP (Escherichia coli, UniProt P0A8V2, D516V).
T2 construct: made in house
The series is described as follows: biochemical.

Series [2] concerns the target T3, E. coli S531L (RIF^R) RNAP (Escherichia coli, UniProt P0A8V2, S531L).
T3 construct: made in house
The series is described as follows: biochemical.

The subject of a further series is VERO cells (ATCC CRL-81). The series is described as follows: Vero cell toxicity. In kind it is cell-based. The settings on record: Chlorocebus sabaeus, Vero; 72 hours exposure. The protocol:
Cytotoxicity for a mammalian cell line was determined by exposing VERO cells (ATCC CRL-81) to serial dilutions of test compounds for 72 hours, followed by addition of resazurin and measurement of fluorescence after 4 hours incubation (Choules, et al., Antimnicrob. Agents Chemother. 2019, 63, e02204-02218).

In a further series the test system is MTB H37Rv ATCC 27294. The series is described as follows: MIC, microplate Alamar Blue assay (MABA). In kind it is cell-based, Mycobacterium tuberculosis. (The colour change of resazurin is a common sign of viable cells or microbes.)
The next series relates to DPX2 cells. The settings on record: for DPX2 Viability @ 6.25 μM: 24 h; for DPX2 Viability @ 25 μM: human.
[3] abbreviates: Mycobacterium tuberculosis, MTB H37Rv ATCC 27294, microplate Alamar Blue assay, lowest concentration giving ≥90% reduction in fluorescence.

Structures are written as SMILES.

As for `CO[C@H]1/C=C/O[C@@]2(C)Oc3c(C)c(O)c4c(=O)c(c5oc6cccc(OCCCCN7CCN(C(=O)CN8CCOCC8)CC7)c6nc-5c4c3C2=O)NC(=O)/C(C)=C\C=C\[C@H](C)[C@H](O)[C@@H](C)[C@@H](O)[C@@H](C)[C@H](OC(C)=O)[C@@H]1C` [Compound 5e, (7S,9E,11S,12R,13S,14R,15R,16R,17S,18S,19E,21Z)-2,15,17-Trihydroxy-11-methoxy-3,7,12,14,16,18,22-heptamethyl-32-(4-{4-[2-(morpholin-4-yl)acetyl]piperazin-1-yl}butoxy)-6,23,37-trioxo-8,27,38-trioxa-24,34-diazahexacyclo[23.11.1.1^4,7.0^5,36.0^26,35.0^28,33]octatriaconta-1(36)2,4,9,19,21,25,28(33)29,31,34-undecaen-13-yl acetate], the concentration for half-maximal inhibition (IC50) against E. coli WT RNAP is 0.007 µM; in series [1], 23 µM; in series [2], > 1000 µM; in the series with VERO cells (ATCC CRL-81), > 8 µM. The “MIC90 MABA Rel to RMP” value against MTB H37Rv ATCC 27294 is on record as 1.4. Further, the MIC in the series with MTB H37Rv ATCC 27294 (Mycobacterium tuberculosis, MTB H37Rv ATCC 27294, microplate Alamar Blue assay, lowest concentration giving ≥90% reduction in fluorescence, read-out: MIC90 MABA) is 0.082 µM. In addition, the “DPX2 Viability @ 6.25 μM” value with DPX2 cells was found to be 106%. In addition, in the series with DPX2 cells, the “DPX2 Viability @ 25 μM” value is 83%.
`CO[C@H]1/C=C/O[C@@]2(C)Oc3c(C)c(O)c4c(=O)c(c5oc6cccc(OCc7cccc(CN8CCN(C(C)=O)CC8)c7)c6nc-5c4c3C2=O)NC(=O)/C(C)=C\C=C\[C@H](C)[C@H](O)[C@@H](C)[C@@H](O)[C@@H](C)[C@H](OC(C)=O)[C@@H]1C` [Compound 11c, (7S,9E,11S,12R,13S,14R,15R,16R,17S,18S,19E,21Z)-32-({3-[(4-Acetylpiperazin-1-yl)methyl]phenyl}methoxy)-2,15,17-trihydroxy-11-methoxy-3,7,12,14,16,18,22-heptamethyl-6,23,37-trioxo-8,27,38-trioxa-24,34-diazahexacyclo-[23.11.1.1^4,7.0^5,36.0^26,35.0^28,33]octatriaconta-1(36)2,4,9,19,21,25,28,30,32,34-undecaen-13-yl acetate]: the 50% inhibitory concentration (IC50) on E. coli WT RNAP is 0.019 µM; in series [1], 8.8 µM; in series [2], 330 µM; with VERO cells (ATCC CRL-81), > 8 µM. Moreover, the “MIC90 MABA Rel to RMP” value in the series with MTB H37Rv ATCC 27294 turned out to be 1.4. Also, in the series on MTB H37Rv ATCC 27294 (setting [3]), the MIC90 was found to be 0.058 µM. Besides, the “DPX2 Viability @ 6.25 μM” value in the series on DPX2 cells amounted to 103%. Moreover, in the series with DPX2 cells, the “DPX2 Viability @ 25 μM” value is given as 70%.
As for `CCC(=O)N1CCN(Cc2cccc(COc3cccc4oc5c6c(=O)c7c(O)c(C)c8c(c7c-5nc34)C(=O)[C@@](C)(O/C=C/[C@H](OC)[C@@H](C)[C@@H](OC(C)=O)[C@H](C)[C@H](O)[C@H](C)[C@@H](O)[C@@H](C)/C=C/C=C(/C)C(=O)N6)O8)c2)CC1` [Compound 11d, (7S,9E,11S,12R,13S,14R,15R,16R,17S,1S,19E,21Z)-2,15,17-Trihydroxy-11-methoxy-3,7,12,14,16,18,22-heptamethyl-6,23,37-trioxo-32-{(3-[(4-propanoylpiperazin-1-yl)methyl]phenyl}methoxy)-8,27,38-trioxa-24,34-diazahexacyclo[23.11.1.1^4,7.0^5,36.0^26,35.0^28,33]octatriaconta-1(36)2,4,9,19,21,25,28,30,32,34-undecaen-13-yl acetate], the IC50 on E. coli WT RNAP was < 0.005 µM; in series [1], 0.9 µM; in series [2], 94 µM; in the series with VERO cells (ATCC CRL-81), 19.1 µM. Besides, in the series on MTB H37Rv ATCC 27294, the “MIC90 MABA Rel to RMP” value came out at 0.43. The MIC90 against MTB H37Rv ATCC 27294 (setting [3]) is 0.016 µM. For the same compound, the “DPX2 Viability @ 6.25 μM” value in the series with DPX2 cells came out at 77%. Besides, the “DPX2 Viability @ 25 μM” value in the series on DPX2 cells is 33%.
Consider `CO[C@H]1/C=C/O[C@@]2(C)Oc3c(C)c(O)c4c(=O)c(c5oc6cccc(OCc7cccc(CN8CCN(C(=O)CN9CCOCC9)CC8)c7)c6nc-5c4c3C2=O)NC(=O)/C(C)=C\C=C\[C@H](C)[C@H](O)[C@@H](C)[C@@H](O)[C@@H](C)[C@H](OC(C)=O)[C@@H]1C` [Compound 11f, (7S,9E,11S,12R,13S,14R,15R,16R,17S,1S,19E,21Z)-2,15,17-Trihydroxy-11-methoxy-3,7,12,14,16,18,22-heptamethyl-32-{[3-({4-[2-(morpholin-4-yl)acetyl]piperazin-1-yl}methyl)phenyl]methoxy}-6,23,37-trioxo-8,27,38-trioxa-24,34-diazahexacyclo[23.11.1.1^4,7.0^5,36.0^26,35.0^28,33]octatriaconta-1(36)2,4,9,19,21,25,28,30,32,34-undecaen-13-yl acetate], for which the IC50 against E. coli WT RNAP is 0.01 µM; in series [1] it was 39 µM; in series [2] it was > 500 µM; in the series on VERO cells (ATCC CRL-81), 6.2 µM. Moreover, the “MIC90 MABA Rel to RMP” value against MTB H37Rv ATCC 27294 is reported as 0.65. Besides, the MIC90 in the series with MTB H37Rv ATCC 27294 (setting [3]) was found to be 0.024 µM. Moreover, the “DPX2 Viability @ 6.25 μM” value with DPX2 cells turned out to be 103%. Also, the “DPX2 Viability” value in the series with DPX2 cells (21 μM) amounted to 57%.
Turning to `CO[C@H]1/C=C/O[C@@]2(C)Oc3c(C)c(O)c4c(=O)c(c5oc6cccc(OCc7cccc(CN8CCN(C(=O)Cc9ccccc9)CC8)c7)c6nc-5c4c3C2=O)NC(=O)/C(C)=C\C=C\[C@H](C)[C@H](O)[C@@H](C)[C@@H](O)[C@@H](C)[C@H](OC(C)=O)[C@@H]1C` [Compound 11g, (7S,9E,11S,12R,13S,14R,15R,16R,17S,18S,19E,21Z)-2,15,17-Trihydroxy-11-methoxy-3,7,12,14,16,18,22-heptamethyl-6,23,37-trioxo-32-[(3-{[4-(2-phenylacetyl)-piperazin-1-yl]methyl}phenyl)methoxy]-8,27,38-trioxa-24,34-diazahexacyclo[23.11.1.1^4,7.0^5,36.0^26,35.0^28,33]octatriaconta-1(36)2,4,9,19,21,25,28,30,32,34-undecaen-13-yl acetate], the IC50 is < 0.005 µM on E. coli WT RNAP, 0.58 µM in series [1], 28 µM in series [2] and > 32 µM in the series on VERO cells (ATCC CRL-81). Also, in the series with MTB H37Rv ATCC 27294, the “MIC90 MABA Rel to RMP” value amounted to 0.30. Besides, the MIC90 with MTB H37Rv ATCC 27294 (setting [3]) came to 0.011 µM. For the same compound, the “DPX2 Viability @ 6.25 μM” value with DPX2 cells came out at 88%. Besides, the “DPX2 Viability @ 25 μM” value in the series with DPX2 cells worked out at 70%.
With `CO[C@H]1/C=C/O[C@@]2(C)Oc3c(C)c(O)c4c(=O)c(c5oc6cccc(OCc7ccc(CN8CCN(C(=O)CN9CCOCC9)CC8)cc7)c6nc-5c4c3C2=O)NC(=O)/C(C)=C\C=C\[C@H](C)[C@H](O)[C@@H](C)[C@@H](O)[C@@H](C)[C@H](OC(C)=O)[C@@H]1C` [Compound 16c, (7S,9E,11S,12R,13S,14R,15R,16R,17S,18S,19E,21Z)-2,15,17-Trihydroxy-11-methoxy-3,7,12,14,16,18,22-heptamethyl-32-{[4-({4-[2-(morpholin-4-yl)acetyl]piperazin-1-yl}methyl)phenyl]methoxy}-6,23,37-trioxo-8,27,38-trioxa-24,34-diazahexacyclo[23.11.1.1^4,7.0^5,36.0^26,35.0^28,33]octatriaconta-1(36)2,4,9,19,21,25,28,30,32,34-undecaen-13-yl acetate], the IC50 is 0.005 µM against E. coli WT RNAP, 10 µM in series [1], 92 µM in series [2] and > 8 µM in the series with VERO cells (ATCC CRL-81). Also, the “MIC90 MABA Rel to RMP” value in the series on MTB H37Rv ATCC 27294 amounted to 0.51. In addition, the MIC90 with MTB H37Rv ATCC 27294 (setting [3]) was 0.019 µM. For the same compound, in the series on DPX2 cells, the “DPX2 Viability @ 6.25 μM” value turned out to be 96%. The “DPX2 Viability @ 25 μM” value with DPX2 cells came to 55%.
`CO[C@H]1/C=C/O[C@@]2(C)Oc3c(C)c(O)c4c(=O)c(c5oc6cc(C)cc(N7CCN(CC(C)C)CC7)c6nc-5c4c3C2=O)NC(=O)/C(C)=C\C=C\[C@H](C)[C@H](O)[C@@H](C)[C@@H](O)[C@@H](C)[C@H](OC(C)=O)[C@@H]1C` [Compound 30c, (7S,9E,11S,12R,13S,14R,15R,16R,17S,18S,19E,21Z)-2,15,17-Trihydroxy-11-methoxy-3,7,12,14,16,18,22,30-octamethyl-32-[4-(2-methylpropyl)piperazin-1-yl]-6,23,37-trioxo-8,27,38-trioxa-24,34-diazahexacyclo[23.11.1.1^4,7.0^5,36.0^26,35.0^28,33]octatriaconta-1(36)2,4,9,19,21,25,28,30,32,34-undecaen-13-yl acetate]: the IC50 is 0.006 µM on E. coli WT RNAP, 10 µM in series [1], 130 µM in series [2] and > 8 µM in the series with VERO cells (ATCC CRL-81). Further, the “MIC90 MABA Rel to RMP” value against MTB H37Rv ATCC 27294 is listed as <0.6. For the same compound, the MIC90 against MTB H37Rv ATCC 27294 (setting [3]) is < 0.016 µM. In the series with DPX2 cells, the “DPX2 Viability @ 6.25 μM” value was found to be 93%. For the same compound, in the series with DPX2 cells, the “DPX2 Viability @ 25 μM” value turned out to be 49%.
In the case of `CO[C@H]1/C=C/O[C@@]2(C)Oc3c(C)c(O)c4c(=O)c(c5oc6cc(C=Nc7ccc(N8CCOCC8)cc7)cc(N7CCN(C)CC7)c6nc-5c4c3C2=O)NC(=O)/C(C)=C\C=C\[C@H](C)[C@H](O)[C@@H](C)[C@@H](O)[C@@H](C)[C@H](OC(C)=O)[C@@H]1C` [Compound 32, (7S,9E,11S,12R,13S,14R,15R,16R,17S,18S,19E,21Z)-2,15,17-trihydroxy-11-methoxy-3,7,12,14,16,18,22-heptamethyl-32-(4-methylpiperazin-1-yl)-30-{N-[4-(morpholin-4-yl)phenyl]carboximidoyl}-6,23,37-trioxo-8,27,38-trioxa-24,34-diazahexacyclo[23.11.1.1^4,7.0^5,36.0^26,35.0^28,33]octatriaconta-1,3,5(36)9,19,21,25,28,30,32,34-undecaen-13-yl acetate], the IC50 was 0.01 µM against E. coli WT RNAP, 30 µM in series [1], 330 µM in series [2] and > 8 µM in the series on VERO cells (ATCC CRL-81). Besides, the “MIC90 MABA Rel to RMP” value in the series on MTB H37Rv ATCC 27294 is 1.74. The compound also yielded an MIC90 with MTB H37Rv ATCC 27294 (setting [3]) of 0.047 µM. In the series on DPX2 cells, the “DPX2 Viability @ 6.25 μM” value was determined as 116%. The “DPX2 Viability @ 25 μM” value in the series on DPX2 cells is 100%.

A word on the IC50: it is the concentration at which inhibition is half-maximal. Lower therefore signals inhibition by little substance. In general, MIC90 refers to an inhibitory concentration at the 90% level, which refers to growth in some studies and to a panel of isolates in others. Read a high MIC90 as lower susceptibility.
